Experiments:
Hepatitis C virus [1] = assay: Antiviral activity against Hepatitis C virus genotype 1b infected in human HuH7 cells in presence of 40% human plasma; format: functional, organism-based, Hepacivirus hominis; conditions: Huh-7, Plasma
Hepatitis C virus [2] = assay: Antiviral activity against Hepatitis C virus genotype 1b infected in human HuH7 cells in presence of 5% fetal calf serum; format: functional, organism-based, Hepacivirus hominis; conditions: Huh-7
Hepatitis C virus [3] = assay: Inhibition of Hepatitis C virus genotype 1b NS5B polymerase; design: species or system Hepatitis C virus subtype 1b
Hepatitis C virus [4] = assay: Antiviral activity against Hepatitis C virus genotype 1a infected in human HuH7 cells in presence of 5% fetal calf serum; format: functional, organism-based, Hepacivirus hominis; conditions: subtype 1a, Huh-7
[5] = Inhibition of Hepatitis C virus genotype 1a NS5B polymerase; design: species or system Hepatitis C virus subtype 1a
[6] = (§1) Oral bioavailability in rat at 5 mg/kg; format: ADME, organism-based; conditions: in vivo
[7] = (§2) Plasma clearance in rat at 5 mg/kg, iv; format: ADME, organism-based; design: dose 5 mg/kg, route intravenous; conditions: plasma
[8] = (§3) Tmax in rat at 5 mg/kg, po; format: ADME, organism-based; design: dose 5 mg/kg, route oral; conditions: in vivo
[9] = (§4) Cmax in rat at 5 mg/kg, po; format: ADME, organism-based; design: dose 5 mg/kg, route oral; conditions: in vivo
[10] = (§5) Half life in rat at 5 mg/kg, po; format: ADME, organism-based; design: dose 5 mg/kg, route oral; conditions: in vivo
[11] = Half life in rat at 5 mg/kg, iv; format: ADME, organism-based; design: dose 5 mg/kg, route intravenous; conditions: in vivo
[12] = (§6) AUC (0 to infinity) in rat at 5 mg/kg, po; format: ADME, organism-based, Plasma; design: dose 5 mg/kg, route oral, time infinity; conditions: plasma
[13] = Effective permeability of the compound by PAMPA; format: ADME; conditions: read-out: Peff
Rattus norvegicus [14] = assay: as §1; format: ADME, organism-based; conditions: in vivo
Rattus norvegicus [15] = assay: as §2; format: ADME, organism-based; design: dose 5 mg/kg, route intravenous; conditions: in vivo
Rattus norvegicus [16] = assay: as §3; format: ADME, organism-based; design: dose 5 mg/kg, route oral; conditions: in vivo
Rattus norvegicus [17] = assay: as §4; format: ADME, organism-based; design: dose 5 mg/kg, route oral; conditions: in vivo
Rattus norvegicus [18] = assay: as §5; format: ADME, organism-based; design: dose 5 mg/kg, route oral; conditions: in vivo
Rattus norvegicus [19] = assay: as §6; format: ADME, organism-based, Plasma; design: dose 5 mg/kg, route oral, time infinity; conditions: in vivo

| SMILES | EC50 (Hepatitis C virus [1]) [nM] | EC50 (Hepatitis C virus [2]) [nM] | IC50 (Hepatitis C virus [3]) [nM] | EC50 (Hepatitis C virus [4]) [nM] | IC50 [5] [nM] | bioavailability [6] [%] | clearance [7] [mL/min/kg] | Tmax [8] [h] | Cmax [9] [ng/mL] | half-life [10] [h] | half-life [11] [h] | AUC(0-inf) [12] [ng·h/mL] | Papp [13] [×10⁻⁶ cm/s] | F (Rattus norvegicus [14]) [%] | CL (Rattus norvegicus [15]) [mL/min/kg] | Tmax (Rattus norvegicus [16]) [h] | Cmax (Rattus norvegicus [17]) [ng/mL] | t1/2 (Rattus norvegicus [18]) [h] | AUC (Rattus norvegicus [19]) [ng·h/mL] |
| --- | --- | --- | --- | --- | --- | --- | --- | --- | --- | --- | --- | --- | --- | --- | --- | --- | --- | --- | --- |
| COc1c(-c2ccc3c(CNS(C)(=O)=O)coc3c2)cc(-n2ccc(=O)[nH]c2=O)cc1C(C)(C)C | 260 | 22 | 21 | 240 | 9 | – | – | – | – | – | – | – | – | – | – | – | – | – | – |
| COc1c(-c2ccc3c(c2)CCC3(C)CNS(C)(=O)=O)cc(-n2ccc(=O)[nH]c2=O)cc1C(C)(C)C (centres undefined) | 560 | 89 | 41 | 480 | 16 | 62 | 10.2 | 0.25 | 1010 | 2.4 | 2.3 | 5100 | – | – | – | – | – | – | – |
| COc1c(-c2ccc3c(c2)CC=C3CNS(C)(=O)=O)cc(-n2ccc(=O)[nH]c2=O)cc1C(C)(C)C | 22 | 3 | 11 | 14 | 6 | 86 | 12.8 | 6.17 | 660 | 3 | 1.9 | 7200 | 5.43 | – | – | – | – | – | – |
| COc1c(-c2ccc3c(c2)CC=C3CN(C)S(C)(=O)=O)cc(-n2ccc(=O)[nH]c2=O)cc1C(C)(C)C | 50 | 100 | 20 | 4 | 7 | – | – | – | – | – | – | – | – | – | – | – | – | – | – |
| COc1c(-c2ccc3c(c2)CC=C3C(C)(C)NS(C)(=O)=O)cc(-n2ccc(=O)[nH]c2=O)cc1C(C)(C)C | > 1000 | > 1000 | 215 | 1000 | 185 | – | – | – | – | – | – | – | 4.06 | – | – | – | – | – | – |
| COc1c(-c2ccc3c(c2)CC/C3=N\NS(C)(=O)=O)cc(-n2ccc(=O)[nH]c2=O)cc1C(C)(C)C | 1 | 1 | 3 | 2 | 3 | 18 | 19.8 | 2.5 | 120 | 3 | 2.8 | 880 | 0.47 | – | – | – | – | – | – |
| COc1c(-c2ccc3c(c2)CCC3NNS(C)(=O)=O)cc(-n2ccc(=O)[nH]c2=O)cc1C(C)(C)C (centres undefined) | 950 | > 100 | 47 | 140 | 33 | – | – | – | – | – | – | – | 0.24 | – | – | – | – | – | – |
| COc1c(C(=O)Nc2ccc(NS(C)(=O)=O)cc2)cc(N2CCC(=O)NC2=O)cc1C(C)(C)C | 18 | 27 | 22 | 51 | 11 | – | – | – | – | – | 1.1 | – | 0.22 | 1.4 | 25.5 | 0.33 | 30 | 1 | 500 |
| COc1c(-c2ccc3c(CNS(C)(=O)=O)noc3c2)cc(-n2ccc(=O)[nH]c2=O)cc1C(C)(C)C | – | > 1000 | 510 | > 1000 | 540 | – | – | – | – | – | – | – | – | – | – | – | – | – | – |
| COc1c(-c2ccc3c(CNS(C)(=O)=O)csc3c2)cc(-n2ccc(=O)[nH]c2=O)cc1C(C)(C)C | 46 | 3 | 10 | 27 | 5 | 41 | 4.5 | 0.5 | 1410 | 3.2 | 3.6 | 9300 | 0.81 | – | – | – | – | – | – |
| COc1c(-c2ccc3nc(NS(C)(=O)=O)sc3c2)cc(-n2ccc(=O)[nH]c2=O)cc1C(C)(C)C | – | > 1000 | 45 | > 1000 | 19 | – | – | – | – | – | – | – | 1.4 | – | – | – | – | – | – |
| COc1c(-c2ccc3cc(CNS(C)(=O)=O)sc3c2)cc(-n2ccc(=O)[nH]c2=O)cc1C(C)(C)C | > 10000 | > 1000 | 245 | > 1000 | 180 | – | – | – | – | – | – | – | 0.81 | – | – | – | – | – | – |
| COc1c(-c2ccc3c(c2)CCC3CNS(C)(=O)=O)cc(-n2ccc(=O)[nH]c2=O)cc1C(C)(C)C (centres undefined) | 13 | 3 | 18 | 20 | 8 | 119 | 7.5 | 0.33 | 2360 | 2.3 | 1.8 | 13500 | 8.93 | – | – | – | – | – | – |

From ChEMBL document CHEMBL2390823, “Aryl uracil inhibitors of hepatitis C virus NS5B polymerase: synthesis and characterization of analogs with a fused 5,6-bicyclic ring motif” (Bioorg Med Chem Lett, 2013)
